Measured values taken from ChEMBL document CHEMBL3734723, “Synthesis and anticancer activity of 6-heteroarylcoumarins” (2015).

Experiments:
Type in all cases: functional
[1] = Growth inhibition of human ovarian cancer cells after 48 hrs by sulforhodamine B assay; details: Cancer cell lines; for CC50: read-out: LC50 (the source's name)
K562 = assay: Growth inhibition of human K562 cells incubated for 48 hrs by sulforhodamine B assay; details: K562, 48 h
[2] = Growth inhibition of human HCC2998 cells incubated for 48 hrs by sulforhodamine B assay; details: HCC 2998, 48 h; for CC50: read-out: LC50 (the source's name)
NCI-H460 = assay: Growth inhibition of human NCI-H460 cells incubated for 48 hrs by sulforhodamine B assay; details: NCI-H460, 48 h; for CC50: read-out: LC50 (the source's name)
[3] = Growth inhibition of human NCI-ADR-RES cells incubated for 48 hrs by sulforhodamine B assay; details: for CC50: read-out: LC50 (the source's name)
[4] = Cytotoxicity against human HCT15 cells assessed as cell growth at 10 uM incubated for 48 hrs by sulforhodamine B assay; details: HCT-15, 48 h, read-out: Activity
NCI-H23 = assay: Cytotoxicity against human NCI-H23 cells assessed as cell growth at 10 uM incubated for 48 hrs by sulforhodamine B assay; details: NCI-H23, 48 h, read-out: Activity
[5] = Cytotoxicity against human HL-60(TB) cells assessed as cell growth at 10 uM incubated for 48 hrs by sulforhodamine B assay; details: HL-60, 48 h, read-out: Activity
[6] = Cytotoxicity against human LOXIMVI cells assessed as cell growth at 10 uM incubated for 48 hrs by sulforhodamine B assay; details: LOX IMVI, read-out: Activity
[7] = Cytotoxicity against human RXF393 cells assessed as cell growth at 10 uM incubated for 48 hrs by sulforhodamine B assay; details: RXF 393, 48 h, read-out: Activity
MDA-MB-468 = assay: Growth inhibition of human MDA-MB-468 cells incubated for 48 hrs by sulforhodamine B assay; details: MDA-MB-468, 48 h; for CC50: read-out: LC50 (the source's name)
ACHN [8] = assay: Cytotoxicity against human ACHN cells assessed as cell growth at 10 uM incubated for 48 hrs by sulforhodamine B assay; details: read-out: Activity
[9] = Cytotoxicity against human SNB19 cells assessed as cell growth at 10 uM incubated for 48 hrs by sulforhodamine B assay; details: SNB-19, 48 h, read-out: Activity
EKVX = assay: Cytotoxicity against human EKVX cells assessed as cell growth at 10 uM incubated for 48 hrs by sulforhodamine B assay; details: read-out: Activity
ACHN [10] = assay: Growth inhibition of human ACHN cells incubated for 48 hrs by sulforhodamine B assay; details: for CC50: read-out: LC50 (the source's name)
[11] = Cytotoxicity against human MOLT4 cells assessed as cell growth at 10 uM incubated for 48 hrs by sulforhodamine B assay; details: MOLT-4, 48 h, read-out: Activity
NCI-H322M = assay: Growth inhibition of human NCI-H322M cells incubated for 48 hrs by sulforhodamine B assay; details: for CC50: read-out: LC50 (the source's name)
[12] = Growth inhibition of human HCT116 cells incubated for 48 hrs by sulforhodamine B assay; details: HCT-116, 48 h; for CC50: read-out: LC50 (the source's name)
[13] = Growth inhibition of human COLO205 cells incubated for 48 hrs by sulforhodamine B assay; details: COLO 205, 48 h; for CC50: read-out: LC50 (the source's name)
[14] = Cytotoxicity against human HCT116 cells assessed as cell growth at 10 uM incubated for 48 hrs by sulforhodamine B assay; details: HCT-116, 48 h, read-out: Activity
[15] = Growth inhibition of human colon cancer cells after 48 hrs by sulforhodamine B assay; details: Cancer cell lines; for CC50: read-out: LC50 (the source's name)
[16] = Growth inhibition of human SW620 cells incubated for 48 hrs by sulforhodamine B assay; details: SW-620, 48 h; for CC50: read-out: LC50 (the source's name)
NCI-H522 = assay: Cytotoxicity against human NCI-H522 cells assessed as cell growth at 10 uM incubated for 48 hrs by sulforhodamine B assay; details: NCI-H522, 48 h, read-out: Activity
[17] = Growth inhibition of human SKOV3 cells incubated for 48 hrs by sulforhodamine B assay; details: SK-OV-3, 48 h; for CC50: read-out: LC50 (the source's name)
SK-MEL-2 = assay: Cytotoxicity against human SK-MEL-2 cells assessed as cell growth at 10 uM incubated for 48 hrs by sulforhodamine B assay; details: SK-MEL-2, 48 h, read-out: Activity
[18] = Cytotoxicity against human SW620 cells assessed as cell growth at 10 uM incubated for 48 hrs by sulforhodamine B assay; details: SW-620, 48 h, read-out: Activity
A549 = assay: Cytotoxicity against human A549 cells assessed as cell growth at 10 uM incubated for 48 hrs by sulforhodamine B assay; details: A549, 48 h, read-out: Activity
[19] = Cytotoxicity against human SKOV3 cells assessed as cell growth at 10 uM incubated for 48 hrs by sulforhodamine B assay; details: SK-OV-3, 48 h, read-out: Activity
[20] = Growth inhibition of human SF539 cells incubated for 48 hrs by sulforhodamine B assay; details: SF-539, 48 h; for CC50: read-out: LC50 (the source's name)
A498 = assay: Growth inhibition of human A498 cells incubated for 48 hrs by sulforhodamine B assay; details: A498, 48 h; for CC50: read-out: LC50 (the source's name)
[21] = Growth inhibition of human HOP62 cells incubated for 48 hrs by sulforhodamine B assay; details: HOP-62, 48 h; for CC50: read-out: LC50 (the source's name)
[22] = Cytotoxicity against human SNB75 cells assessed as cell growth at 10 uM incubated for 48 hrs by sulforhodamine B assay; details: SNB-75, 48 h, read-out: Activity
Malme-3M = assay: Cytotoxicity against human MALME-3M cells assessed as cell growth at 10 uM incubated for 48 hrs by sulforhodamine B assay; details: read-out: Activity
[23] = Growth inhibition of human LOXIMVI cells incubated for 48 hrs by sulforhodamine B assay; details: LOX IMVI; for CC50: read-out: LC50 (the source's name)
[24] = Cytotoxicity against human DU145 cells assessed as cell growth at 10 uM incubated for 48 hrs by sulforhodamine B assay; details: DU-145, 48 h, read-out: Activity
[25] = Cytotoxicity against human COLO205 cells assessed as cell growth at 10 uM incubated for 48 hrs by sulforhodamine B assay; details: COLO 205, 48 h, read-out: Activity

Compound `Cc1cc(=O)oc2c(C)c(O)c(-c3cc4ccc(F)cc4[nH]3)cc12` has a GI50 [1] of 3.08 µM, a TGI [1] of 17.2 µM and a CC50 [1] of 73.6 µM. The GI50 (K562) was 2.68 µM, the TGI (K562) was 23 µM and the CC50 (K562; read-out: LC50 (the source's name)) was greater than 100 µM. It also gave a GI50 [2] of 3.49 µM, a TGI [2] of 13.5 µM and a CC50 [2] of 39.9 µM. It also gave a GI50 (NCI-H460) of 2.82 µM, a TGI (NCI-H460) of 10.5 µM and a CC50 (NCI-H460) of 66.6 µM. The GI50 [3] was 2.82 µM, the TGI [3] was 12.7 µM and the CC50 [3] was greater than 100 µM. The growth at 10 µM [4] was 31.9%, the growth at 10 µM (NCI-H23) was 10.2% and the growth at 10 µM [5] was 27.9%. The growth at 10 µM [6] was 36.4%, the growth at 10 µM [7] was 64.4% and the GI50 (MDA-MB-468) was 2.31 µM. The TGI (MDA-MB-468) was 8.66 µM, the CC50 (MDA-MB-468) was 80.4 µM and the growth at 10 µM (ACHN [8]) was 27.6%. It also gave a growth at 10 µM [9] of 31.6%, a growth at 10 µM (EKVX) of 53.3% and a GI50 (ACHN [10]) of 2.64 µM. For the same compound, the TGI (ACHN [10]) was 10.6 µM, the CC50 (ACHN [10]) was 74.7 µM and the growth at 10 µM [11] was 36.5%. It also gave a GI50 (NCI-H322M) of 3.23 µM, a TGI (NCI-H322M) of 13.1 µM and a CC50 (NCI-H322M) of 88.3 µM. For the same compound, the GI50 [12] was 2.62 µM, the TGI [12] was 9.87 µM and the CC50 [12] was 31.5 µM. For the same compound, the GI50 [13] was 11.7 µM, the TGI [13] was 25.6 µM and the CC50 [13] was 56 µM. The growth at 10 µM [14] was 22.9%, the GI50 [15] was 5.38 µM and the TGI [15] was 16.2 µM. It also gave a CC50 [15] of 48.1 µM, a GI50 [16] of 3.54 µM and a TGI [16] of 15.2 µM. The CC50 [16] was 52.2 µM, the growth at 10 µM (NCI-H522) was 15% and the GI50 [17] was 2.93 µM. For the same compound, the TGI [17] was 13.1 µM, the CC50 [17] was 64.9 µM and the growth at 10 µM (SK-MEL-2) was 19.5%. The growth at 10 µM [18] was 58.6%, the growth at 10 µM (A549) was 39.3% and the growth at 10 µM [19] was 47.1%. For the same compound, the GI50 [20] was 2.94 µM, the TGI [20] was 14.1 µM and the CC50 [20] was 59.4 µM. For the same compound, the GI50 (A498) was 1.93 µM, the TGI (A498) was 6.21 µM and the CC50 (A498) was 25.8 µM. For the same compound, the GI50 [21] was 2.98 µM, the TGI [21] was 15.9 µM and the CC50 [21] was 45.4 µM. It also gave a growth at 10 µM [22] of 68.8%, a growth at 10 µM (Malme-3M) of 31.9% and a GI50 [23] of 2.51 µM. For the same compound, the TGI [23] was 10.6 µM and the CC50 [23] was 37.3 µM.
In the case of `Cc1cc(=O)oc2c(C)c(O)c(-c3ccnc(N)n3)cc12`, the GI50 [1] is reported as 42.5 µM, the TGI [1] is reported as greater than 100 µM and the CC50 [1] is reported as greater than 100 µM. For the same compound, the GI50 [2] was greater than 100 µM, the TGI [2] was greater than 100 µM and the CC50 [2] was greater than 100 µM. The GI50 (NCI-H460) was 2.44 µM, the TGI (NCI-H460) was greater than 100 µM and the CC50 (NCI-H460) was greater than 100 µM. It also gave a GI50 [3] of 66.1 µM, a TGI [3] greater than 100 µM and a CC50 [3] greater than 100 µM. For the same compound, the growth at 10 µM [4] was 50.4%, the growth at 10 µM (NCI-H23) was 68.3% and the growth at 10 µM [5] was -0.65%. It also gave a growth at 10 µM [6] of 27.2%, a growth at 10 µM [7] of 55.7% and a GI50 (MDA-MB-468) of 4.53 µM. The TGI (MDA-MB-468) was greater than 100 µM, the CC50 (MDA-MB-468) was greater than 100 µM and the growth at 10 µM (ACHN [8]) was 26.9%. For the same compound, the growth at 10 µM [9] was 64.1%, the growth at 10 µM (EKVX) was 46.7% and the GI50 (ACHN [10]) was 2.39 µM. It also gave a TGI (ACHN [10]) greater than 100 µM, a CC50 (ACHN [10]) greater than 100 µM and a growth at 10 µM [11] of -44.7%. It also gave a GI50 (NCI-H322M) of 59 µM, a TGI (NCI-H322M) greater than 100 µM and a CC50 (NCI-H322M) greater than 100 µM. It also gave a GI50 [12] of 3.05 µM, a TGI [12] greater than 100 µM and a CC50 [12] greater than 100 µM. The GI50 [13] was 6.85 µM, the TGI [13] was greater than 100 µM and the CC50 [13] was greater than 100 µM. The growth at 10 µM [24] was 66.6%, the growth at 10 µM [14] was 15.8% and the GI50 [15] was 32.7 µM. It also gave a TGI [15] greater than 100 µM, a CC50 [15] greater than 100 µM and a GI50 [16] of 3.6 µM. It also gave a TGI [16] greater than 100 µM, a CC50 [16] greater than 100 µM and a growth at 10 µM (NCI-H522) of 47%. It also gave a GI50 [17] of 28.3 µM, a TGI [17] greater than 100 µM and a CC50 [17] greater than 100 µM. For the same compound, the growth at 10 µM [18] was 38.4%, the growth at 10 µM (A549) was 39.5% and the GI50 [20] was 8.33 µM. The TGI [20] was greater than 100 µM, the CC50 [20] was greater than 100 µM and the GI50 (A498) was 1.44 µM. The TGI (A498) was greater than 100 µM, the CC50 (A498) was greater than 100 µM and the GI50 [21] was 10.9 µM. For the same compound, the TGI [21] was greater than 100 µM, the CC50 [21] was greater than 100 µM and the growth at 10 µM [22] was 33.8%. For the same compound, the growth at 10 µM (Malme-3M) was 66.9%, the GI50 [23] was 4.44 µM and the TGI [23] was greater than 100 µM. The CC50 [23] was greater than 100 µM and the growth at 10 µM [25] was 46.9%.
